Data from paper PMC2728841, “The Crystal Structure of the Escherichia coli Autoinducer-2 Processing Protein LsrF” (PLoS ONE, 2009).

Biological target: T1, LsrF (Escherichia coli, UniProt P76143)
T1 construct: His6-MBP fusion (pDEST-HisMBP) made in E. coli BL21, tag cut with TEV protease; decamer; model lacks residues 1-9, 177-180, 290-291
Experiment: X-ray crystallography, crystal soak, […] Å
Assay type: binding
Settings: 100 mM ligand soak, 5 min, 100 mM Tris pH 8.0, 100 mM MgCl2, 27.5% PEG 400; aldolase active site; non-covalent model

T1 sequence (P76143 whole entry, the tested form may be a part): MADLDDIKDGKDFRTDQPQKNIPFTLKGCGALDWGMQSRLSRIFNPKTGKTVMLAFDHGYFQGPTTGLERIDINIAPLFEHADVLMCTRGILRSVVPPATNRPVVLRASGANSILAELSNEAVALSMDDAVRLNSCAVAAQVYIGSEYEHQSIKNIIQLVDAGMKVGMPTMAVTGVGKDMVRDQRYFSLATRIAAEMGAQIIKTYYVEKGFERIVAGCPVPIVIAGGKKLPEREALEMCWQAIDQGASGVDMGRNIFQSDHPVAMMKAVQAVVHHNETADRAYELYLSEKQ

Structure (SMILES): O=P(O)(O)OC[C@H]1OC(O)[C@H](O)[C@@H]1O (stereo partly shown) [ribose-5-phosphate]
- X-ray crystallography, crystal soak, 2.5 Å: The final model included one ribose-5-phosphate per chain
